In PubChem BioAssay AID2060502 (Molecular Pharmacology Branch, DTP, NCI, 2025):

System: 885724-159-R-J1-PDC complex spheroid viability
Assay: Anticancer human tumor 885724-159-R-J1-PDC patient-derived pancreatic adenocarcinoma cell line growth inhibition [GQUAD]
Conditions: for IC50: curve of first compound; for viability, T/C: stronger effect = lower value; active = viability on the fitted dose curve at most 10% of control; inactive = the rest
Procedure, shortened: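 Multi-cell-type spheroids of tumor cells with HUVEC and mesenchymal stem cells, treated with drug combinations. Concentrations descend in half-log steps from near clinical Cmax, or from 10 microM where Cmax is unknown; viability read-out.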
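Also: spheroids exposed to agents for seven days before readout.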
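For viability, T/C in this document: percent of vehicle control viability where 100% = DMSO wells.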

COc1ncnc(C2CC2)c1-c1ncc2cnn(Cc3ccc(-c4nc(C(F)(F)F)cn4C(C)C)cc3)c2n1 + CN(C)c1ccc(Nc2c3ccc(NC(=O)CCN4CCCC4)cc3nc3cc(NC(=O)CCN4CCCC4)ccc23)cc1
> 10 µM: IC50 (second compound 0.0316 µM) | IC50 (second compound 0.1 µM) | IC50 (second compound 0.316 µM) | IC50 (second compound 1 µM) | IC50 (second compound 3.16 µM) | IC50 (second compound 10 µM)
inactive: viability, T/C (second compound 0.0316 µM, first compound 0.0316 µM) 96.8% | viability, T/C (second compound 0.0316 µM, first compound 0.1 µM) 101% | viability, T/C (second compound 0.0316 µM, first compound 0.316 µM) 85.6% | viability, T/C (second compound 0.0316 µM, first compound 1 µM) 86.9% | viability, T/C (second compound 0.0316 µM, first compound 3.16 µM) 81.4% | viability, T/C (second compound 0.0316 µM, first compound 10 µM) 105% | viability, T/C (second compound 0.1 µM, first compound 0.0316 µM) 103% | viability, T/C (second compound 0.1 µM, first compound 0.1 µM) 88.2% | viability, T/C (second compound 0.1 µM, first compound 0.316 µM) 96.9% | viability, T/C (second compound 0.1 µM, first compound 1 µM) 98% | viability, T/C (second compound 0.1 µM, first compound 3.16 µM) 95% | viability, T/C (second compound 0.1 µM, first compound 10 µM) 94.5% | viability, T/C (second compound 0.316 µM, first compound 0.0316 µM) 97.6% | viability, T/C (second compound 0.316 µM, first compound 0.1 µM) 86.1% | viability, T/C (second compound 0.316 µM, first compound 0.316 µM) 82.3% | viability, T/C (second compound 0.316 µM, first compound 1 µM) 80.1% | viability, T/C (second compound 0.316 µM, first compound 3.16 µM) 101% | viability, T/C (second compound 0.316 µM, first compound 10 µM) 95.7% | viability, T/C (second compound 1 µM, first compound 0.0316 µM) 77.5% | viability, T/C (second compound 1 µM, first compound 0.1 µM) 70.4% | viability, T/C (second compound 1 µM, first compound 0.316 µM) 81.1% | viability, T/C (second compound 1 µM, first compound 1 µM) 67.7% | viability, T/C (second compound 1 µM, first compound 3.16 µM) 79.3% | viability, T/C (second compound 1 µM, first compound 10 µM) 83.1% | viability, T/C (second compound 3.16 µM, first compound 0.0316 µM) 79.2% | viability, T/C (second compound 3.16 µM, first compound 0.1 µM) 76.7% | viability, T/C (second compound 3.16 µM, first compound 0.316 µM) 68.8% | viability, T/C (second compound 3.16 µM, first compound 1 µM) 58% | viability, T/C (second compound 3.16 µM, first compound 3.16 µM) 77.4% | viability, T/C (second compound 3.16 µM, first compound 10 µM) 78.1% | viability, T/C (second compound 10 µM, first compound 0.0316 µM) 61.3% | viability, T/C (second compound 10 µM, first compound 0.1 µM) 66.5% | viability, T/C (second compound 10 µM, first compound 0.316 µM) 73.5% | viability, T/C (second compound 10 µM, first compound 1 µM) 70.5% | viability, T/C (second compound 10 µM, first compound 3.16 µM) 63.1% | viability, T/C (second compound 10 µM, first compound 10 µM) 47.8%
